#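 How tested: cells in 96-well plates exposed to compound for 48 hours at five concentrations. Here, GI50 denotes the concentration required for 50% inhibition of growth. TGI marks complete inhibition of growth.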
# Columns and labels:
# Experiment in all cases: NCI anticancer screen, dose series, 48 h
# 786-0 renal = tested on: 786-0 renal
# A498 renal = tested on: A498 renal
# A549 NSCLC = tested on: A549 NSCLC
# ACHN renal = tested on: ACHN renal
# BT-549 breast = tested on: BT-549 breast
# CAKI-1 renal = tested on: CAKI-1 renal
# CCRF-CEM leukemia = tested on: CCRF-CEM leukemia
# COLO 205 colon = tested on: COLO 205 colon
# DU-145 prostate = tested on: DU-145 prostate
# EKVX NSCLC = tested on: EKVX NSCLC
# HCC-2998 colon = tested on: HCC-2998 colon
# HCT-116 colon = tested on: HCT-116 colon
# HCT-15 colon = tested on: HCT-15 colon
# HL-60(TB) leukemia = tested on: HL-60(TB) leukemia
# HOP-62 NSCLC = tested on: HOP-62 NSCLC
# HOP-92 NSCLC = tested on: HOP-92 NSCLC
# HS 578T breast = tested on: HS 578T breast
# HT29 colon = tested on: HT29 colon
# IGROV1 ovarian = tested on: IGROV1 ovarian
# K-562 leukemia = tested on: K-562 leukemia
# KM12 colon = tested on: KM12 colon
# LOX IMVI melanoma = tested on: LOX IMVI melanoma
# M14 melanoma = tested on: M14 melanoma
# MALME-3M melanoma = tested on: MALME-3M melanoma
# MCF7 breast = tested on: MCF7 breast
# MDA-MB-231 breast = tested on: MDA-MB-231 breast
# MDA-MB-435 = tested on: MDA-MB-435
# MOLT-4 leukemia = tested on: MOLT-4 leukemia
# NCI-H226 lung = tested on: NCI-H226 lung
# NCI-H23 lung = tested on: NCI-H23 lung
# NCI-H460 lung = tested on: NCI-H460 lung
# NCI-H522 lung = tested on: NCI-H522 lung
# NCI/ADR-RES ovarian = tested on: NCI/ADR-RES ovarian
# OVCAR-3 ovarian = tested on: OVCAR-3 ovarian
# OVCAR-5 ovarian = tested on: OVCAR-5 ovarian
# OVCAR-8 ovarian = tested on: OVCAR-8 ovarian
# PC-3 prostate = tested on: PC-3 prostate
# RPMI-8226 leukemia = tested on: RPMI-8226 leukemia
# RXF 393 renal = tested on: RXF 393 renal
# SF-268 CNS = tested on: SF-268 CNS
# SF-295 CNS = tested on: SF-295 CNS
# SF-539 CNS = tested on: SF-539 CNS
# SK-MEL-2 melanoma = tested on: SK-MEL-2 melanoma
# SK-MEL-28 melanoma = tested on: SK-MEL-28 melanoma
# SK-MEL-5 melanoma = tested on: SK-MEL-5 melanoma
# SK-OV-3 ovarian = tested on: SK-OV-3 ovarian
# SN12C renal = tested on: SN12C renal
# SNB-19 CNS = tested on: SNB-19 CNS
# SNB-75 CNS = tested on: SNB-75 CNS
# SR leukemia = tested on: SR leukemia
# SW-620 colon = tested on: SW-620 colon
# T-47D breast = tested on: T-47D breast
# TK-10 renal = tested on: TK-10 renal
# U251 CNS = tested on: U251 CNS
# UACC-257 melanoma = tested on: UACC-257 melanoma
# UACC-62 melanoma = tested on: UACC-62 melanoma
# UO-31 renal = tested on: UO-31 renal
smiles,measurement,setting,value
C#CCn1cnc2cnc(Nc3cccc(NC(=O)CCl)c3)nc21,GI50,786-0 renal,23.3 µM
same,TGI,786-0 renal,> 62.5 µM
same,GI50,A498 renal,21 µM
same,TGI,A498 renal,> 62.5 µM
same,GI50,A549 NSCLC,20 µM
same,TGI,A549 NSCLC,> 62.5 µM
same,GI50,ACHN renal,10.9 µM
same,TGI,ACHN renal,23.3 µM
same,GI50,BT-549 breast,13.3 µM
same,TGI,BT-549 breast,> 62.5 µM
same,GI50,CAKI-1 renal,22.9 µM
same,TGI,CAKI-1 renal,> 62.5 µM
same,GI50,CCRF-CEM leukemia,15.3 µM
same,TGI,CCRF-CEM leukemia,> 62.5 µM
same,GI50,COLO 205 colon,15.2 µM
same,TGI,COLO 205 colon,45 µM
same,GI50,DU-145 prostate,29.8 µM
same,TGI,DU-145 prostate,> 62.5 µM
same,GI50,EKVX NSCLC,> 62.5 µM
same,TGI,EKVX NSCLC,> 62.5 µM
same,GI50,HCC-2998 colon,46.8 µM
same,TGI,HCC-2998 colon,> 62.5 µM
same,GI50,HCT-116 colon,21.3 µM
same,TGI,HCT-116 colon,> 62.5 µM
same,GI50,HCT-15 colon,29.3 µM
same,TGI,HCT-15 colon,> 62.5 µM
same,GI50,HL-60(TB) leukemia,15.7 µM
same,TGI,HL-60(TB) leukemia,41.3 µM
same,GI50,HOP-62 NSCLC,54.7 µM
same,TGI,HOP-62 NSCLC,> 62.5 µM
same,GI50,HOP-92 NSCLC,> 62.5 µM
same,TGI,HOP-92 NSCLC,> 62.5 µM
same,GI50,HS 578T breast,17.3 µM
same,TGI,HS 578T breast,> 62.5 µM
same,GI50,HT29 colon,17.3 µM
same,TGI,HT29 colon,> 62.5 µM
same,GI50,IGROV1 ovarian,6.99 µM
same,TGI,IGROV1 ovarian,22.3 µM
same,GI50,K-562 leukemia,23.7 µM
same,TGI,K-562 leukemia,> 62.5 µM
same,GI50,KM12 colon,21.1 µM
same,TGI,KM12 colon,> 62.5 µM
same,GI50,LOX IMVI melanoma,16.3 µM
same,TGI,LOX IMVI melanoma,> 62.5 µM
same,GI50,M14 melanoma,22.5 µM
same,TGI,M14 melanoma,> 62.5 µM
same,GI50,MALME-3M melanoma,23.2 µM
same,TGI,MALME-3M melanoma,> 62.5 µM
same,GI50,MCF7 breast,15.3 µM
same,TGI,MCF7 breast,> 62.5 µM
same,GI50,MDA-MB-231 breast,20.8 µM
same,TGI,MDA-MB-231 breast,> 62.5 µM
same,GI50,MDA-MB-435,28.5 µM
same,TGI,MDA-MB-435,> 62.5 µM
same,GI50,MOLT-4 leukemia,21.5 µM
same,TGI,MOLT-4 leukemia,> 62.5 µM
same,GI50,NCI-H226 lung,49.9 µM
same,TGI,NCI-H226 lung,> 62.5 µM
same,GI50,NCI-H23 lung,38.8 µM
same,TGI,NCI-H23 lung,> 62.5 µM
same,GI50,NCI-H460 lung,22.7 µM
same,TGI,NCI-H460 lung,> 62.5 µM
same,GI50,NCI-H522 lung,10.3 µM
same,TGI,NCI-H522 lung,22.4 µM
same,GI50,NCI/ADR-RES ovarian,26.4 µM
same,TGI,NCI/ADR-RES ovarian,> 62.5 µM
same,GI50,OVCAR-3 ovarian,15.2 µM
same,TGI,OVCAR-3 ovarian,> 62.5 µM
same,GI50,OVCAR-5 ovarian,29.8 µM
same,TGI,OVCAR-5 ovarian,> 62.5 µM
same,GI50,OVCAR-8 ovarian,26.3 µM
same,TGI,OVCAR-8 ovarian,> 62.5 µM
same,GI50,PC-3 prostate,27.7 µM
same,TGI,PC-3 prostate,> 62.5 µM
same,GI50,RPMI-8226 leukemia,19.2 µM
same,TGI,RPMI-8226 leukemia,> 62.5 µM
same,GI50,RXF 393 renal,10.1 µM
same,TGI,RXF 393 renal,25.4 µM
same,GI50,SF-268 CNS,25.8 µM
same,TGI,SF-268 CNS,> 62.5 µM
same,GI50,SF-295 CNS,47.1 µM
same,TGI,SF-295 CNS,> 62.5 µM
same,GI50,SF-539 CNS,16.9 µM
same,TGI,SF-539 CNS,> 62.5 µM
same,GI50,SK-MEL-2 melanoma,43 µM
same,TGI,SK-MEL-2 melanoma,> 62.5 µM
same,GI50,SK-MEL-28 melanoma,25.3 µM
same,TGI,SK-MEL-28 melanoma,> 62.5 µM
same,GI50,SK-MEL-5 melanoma,10.3 µM
same,TGI,SK-MEL-5 melanoma,19.5 µM
same,GI50,SK-OV-3 ovarian,23.6 µM
same,TGI,SK-OV-3 ovarian,> 62.5 µM
same,GI50,SN12C renal,19.4 µM
same,TGI,SN12C renal,> 62.5 µM
same,GI50,SNB-19 CNS,36.5 µM
same,TGI,SNB-19 CNS,> 62.5 µM
same,GI50,SNB-75 CNS,8.18 µM
same,TGI,SNB-75 CNS,> 62.5 µM
same,GI50,SR leukemia,56.8 µM
same,TGI,SR leukemia,> 62.5 µM
same,GI50,SW-620 colon,19.1 µM
same,TGI,SW-620 colon,> 62.5 µM
same,GI50,T-47D breast,> 62.5 µM
same,TGI,T-47D breast,> 62.5 µM
same,GI50,TK-10 renal,22.9 µM
same,TGI,TK-10 renal,> 62.5 µM
same,GI50,U251 CNS,19.6 µM
same,TGI,U251 CNS,> 62.5 µM
same,GI50,UACC-257 melanoma,51 µM
same,TGI,UACC-257 melanoma,> 62.5 µM
same,GI50,UACC-62 melanoma,22.6 µM
same,TGI,UACC-62 melanoma,> 62.5 µM
same,GI50,UO-31 renal,10.9 µM
same,TGI,UO-31 renal,55.3 µM

# Source: PubChem BioAssay (NCI)
